This is an account of results in PMC10126150 (2023).

The test system of assay [1] is glu-3 ADS construct (DNA, aptamer, boronic acid-modified U (Z, T in the source) at 5,7,8,12,15,19,24,26 of strand 1 (MS of Bio-NNGmin: seven of eight coupled)) CCCGTGTTAGATAGTAAGTGCAATCTCGGCTTTCTGTCTCTTATACACATCTGACGCTGCCGACGA/TCGTCGGCAGCGTCAGATGTGTATAAGAGACAGTTTTTTTTTTTTTTTTTTTTTTTTTTACCAGGAGCTC
The experiment in a line: Cy3/quencher fluorescence plate reader, single-site fit. Conditions: 120 mM Na+, 5 mM K+, 1 mM Mg2+, 1 mM Ca2+; 20 mM Tris-HCl, 0.01% Tween-20, 25 °C; apparent; order of ~0.3 for all four constructs.

Assay [2] has as its system NNGmin_scr with glu-1 (DNA, other, boronic acid-modified U (Z) at 1,4,15,18,19,22,26,29 of strand 1) TGGTGCGCGCAGGCTCCTTAATGCATAATTTTCTGTCTCTTATACACATCTGACGCTGCCGACG/TCGTCGGCAGCGTCAGATGTGTATAAGAGACAGTTTTTTTTTTTTTTTTTTTTTTTTTTAGGGCAGGCTC
The experiment in a line: Cy3/quencher fluorescence plate reader. Conditions: 120 mM Na+, 5 mM K+, 1 mM Mg2+, 1 mM Ca2+; 20 mM Tris-HCl, 25 °C; 20% signal change against 45-50% for glu1-4.

Assay [3] concerns glu-1 ADS construct (DNA, aptamer, boronic acid-modified U (Z, T in the source) at 5,7,8,12,15,19,24,26 of strand 1 (MS of Bio-NNGmin: seven of eight coupled)) CCCGTGTTAGATAGTAAGTGCAATCTCGGCTTTCTGTCTCTTATACACATCTGACGCTGCCGACGA/TCGTCGGCAGCGTCAGATGTGTATAAGAGACAGTTTTTTTTTTTTTTTTTTTTTTTTTTAGGGCAGGCTC
The experiment in a line: Cy3/quencher fluorescence plate reader, single-site fit. Conditions: 120 mM Na+, 5 mM K+, 1 mM Mg2+, 1 mM Ca2+; 20 mM Tris-HCl, 0.01% Tween-20, 25 °C; apparent; order of ~0.3 for all four constructs.

The test system of assay [4] is NNGmin_scr with glu-2 (DNA, other, boronic acid-modified U (Z) at 1,4,15,18,19,22,26,29 of strand 1) TGGTGCGCGCAGGCTCCTTAATGCATAATTTTCTGTCTCTTATACACATCTGACGCTGCCGACG/TCGTCGGCAGCGTCAGATGTGTATAAGAGACAGTTTTTTTTTTTTTTTTTTTTTTTTTCAGGACAGGCTC
The experiment in a line: Cy3/quencher fluorescence plate reader. Conditions: 120 mM Na+, 5 mM K+, 1 mM Mg2+, 1 mM Ca2+; 20 mM Tris-HCl, 25 °C; 20% signal change against 45-50% for glu1-4.

Assay [5] concerns glu-2 ADS construct (DNA, aptamer, boronic acid-modified U (Z, T in the source) at 5,7,8,12,15,19,24,26 of strand 1 (MS of Bio-NNGmin: seven of eight coupled)) CCCGTGTTAGATAGTAAGTGCAATCTCGGCTTTCTGTCTCTTATACACATCTGACGCTGCCGACGA/TCGTCGGCAGCGTCAGATGTGTATAAGAGACAGTTTTTTTTTTTTTTTTTTTTTTTTTCAGGACAGGCTC
The experiment in a line: Cy3/quencher fluorescence plate reader, single-site fit. The following applies: 120 mM Na+, 5 mM K+, 1 mM Mg2+, 1 mM Ca2+; 20 mM Tris-HCl, 0.01% Tween-20, 25 °C; apparent; order of ~0.3 for all four constructs.

For assay [6], the system named is glu-4 ADS construct (DNA, aptamer, boronic acid-modified U (Z, T in the source) at 5,7,8,12,15,19,24,26 of strand 1 (MS of Bio-NNGmin: seven of eight coupled)) CCCGTGTTAGATAGTAAGTGCAATCTCGGCTTTCTGTCTCTTATACACATCTGACGCTGCCGACGA/TCGTCGGCAGCGTCAGATGTGTATAAGAGACAGTTTTTTTTTTTTTTTTTTTTTTTTTACCAGGAGCTTC
The description is as above. Conditions: 120 mM Na+, 5 mM K+, 1 mM Mg2+, 1 mM Ca2+; 20 mM Tris-HCl, 0.01% Tween-20, 25 °C; apparent; order of ~0.3 for all four constructs.

The test system of assay [7] is NNGmin_scr with glu-3 (DNA, other, boronic acid-modified U (Z) at 1,4,15,18,19,22,26,29 of strand 1) TGGTGCGCGCAGGCTCCTTAATGCATAATTTTCTGTCTCTTATACACATCTGACGCTGCCGACG/TCGTCGGCAGCGTCAGATGTGTATAAGAGACAGTTTTTTTTTTTTTTTTTTTTTTTTTTACCAGGAGCTC
The experiment in a line: Cy3/quencher fluorescence plate reader. The following applies: 120 mM Na+, 5 mM K+, 1 mM Mg2+, 1 mM Ca2+; 20 mM Tris-HCl, 25 °C; 20% signal change against 45-50% for glu1-4.

Assay [8] relates to NNGmin_scr with glu-4 (DNA, other, boronic acid-modified U (Z) at 1,4,15,18,19,22,26,29 of strand 1) TGGTGCGCGCAGGCTCCTTAATGCATAATTTTCTGTCTCTTATACACATCTGACGCTGCCGACG/TCGTCGGCAGCGTCAGATGTGTATAAGAGACAGTTTTTTTTTTTTTTTTTTTTTTTTTACCAGGAGCTTC
The experiment in a line: Cy3/quencher fluorescence plate reader. The following applies: 120 mM Na+, 5 mM K+, 1 mM Mg2+, 1 mM Ca2+; 20 mM Tris-HCl, 25 °C; 20% signal change against 45-50% for glu1-4.

The test system of assay [9] is atp-7 ADS construct (DNA, aptamer) CACCTGGGGGAGTATTGCGGAGGAAGGTTTCTGTCTCTTATACACATCTGACGCTGCCGACGA/TCGTCGGCAGCGTCAGATGTGTATAAGAGACAGTTTTTTTTTTTTTTTTTTTTTTTTTCCGGGGGCTATC
The experiment in a line: Cy3/quencher fluorescence plate reader, two-site fit. Conditions: 120 mM Na+, 5 mM K+, 1 mM Mg2+, 1 mM Ca2+; 20 mM Tris-HCl, 0.01% Tween-20, 25 °C; apparent; lower end of range 12–157, atp-7 stated highest affinity.

For `OC[C@H]1OC(O)[C@H](O)[C@@H](O)[C@@H]1O` (stereo partly drawn), the KDeff in assay [1], in assay [3], in assay [5] and in assay [6] was ~ 0.3 mM in each case. Moreover, the binding entry in [2], in [4], in assay [7] and in assay [8] was “weak” in each case.
Take `Nc1ncnc2c1ncn2[C@@H]1O[C@H](COP(=O)(O)OP(=O)(O)OP(=O)(O)O)[C@@H](O)[C@H]1O`: the KD in assay [9] turned out to be 12 µM.
